Reference: patent US12172988B2, “Anticancer and antifungal splice modulators” (priority 2021, dated 2024)
“Also recorded” adds a separate entry of the source. Where two headings read alike, the source gives them in different places.

Tests used:
Format in all cases: cell-based, human
[1] = tested on: HCT116 colorectal carcinoma cells; assay: MTS cell viability / cell growth inhibition assay; conditions: for GI50: Homo sapiens, HCT-116, 72 h
Experimental: With milligram quantities of 1a-1i at hand, we began our studies to evaluate the relative efficacy of each analogue using cell growth inhibition studies in HCT116 colorectal carcinoma cells. As reported in FIG. 3, GI50 values were collected for each analog after a 72 h treatment using the MTS cell viability assay (Table 12). Under these conditions, the natural FD-895 (1), 3S-FD-895 (1a) 17S-FD-895 (1d), 17-methoxy-FD-895 (1e) provided activities of <10 nM.
HCT-116 cells was cultured in McCoy's 5a (Life Technologies) supplemented with 10% fetal bovine serum (FBS), 2 mM L-glutamine, and 100 U mL^−1 of penicillin and 100 μg mL^−1 of streptomycin at 37° C. in an atmosphere of 5% CO2. Compounds were dissolved in DMSO (MilliporeSigma). Cells were treated with 1-1j in media with ≥0.5% DMSO for 4-72 h.
Studies were conducted in […] cell culture plates. HCT-116 plated at 5×10^3 cells/well were cultured for 24 h and then treated with analogs 1-1j for 4-72 h, then washed twice with 100 μL PBS. PBS (100 μL) was added to each well, followed by 20 μL of CellTiter Aqueous One Solution (Promega). After 2 h at 37° C., absorbance readings were taken at 490 nm (test wavelength) and 690 nm (reference wavelength). GI50 values were calculated in Prism (GraphPad) using greater 3 replicates.
(§1) Cells were treated with 1 or 1a-1j in media (McCoy's 5a (Life Technologies) supplemented with 10% FBS, 2 mM L-glutamine, and 100 U mL^−1 of penicillin and 100 μg mL^−1 of streptomycin 0.5% DMSO) for 4 h or 24 h. Untreated cells were considered were used as negative control. Total RNA was isolated using mirVana miRNA isolation kit (Life Technologies). A 1 μg sample of RNA was subjected to DNAseI from a TURBO DNA free kit (Life Technologies). The cDNA was prepared by using SuperScript III reverse transcriptase kit (Life Technologies). The amount of unspliced RNA for different genes was determined using Power SYBR Green PCR master mix (Applied Biosystems) by qPCR using specific primers for each gene. qPCR using 2.5 μM of each primer was performed on 5 ng of the obtained cDNA. qPCR conditions were as follows: 95° C. for 10 min for one cycle, then 95° C. for 10 min for one cycle, then 95° C. for 30 s, 55° C. for 60 s, 72° C. for 60 s, for 40 cycles using the MXPro. Quantification cycle (Cq) values were identified for each sample, and then RNA levels were calculated using 2-ΔΔCT method. GAPDH was used as a control for normalization. At least three replicates were conducted for each compound. Namely, all genes explored in this study were evaluated from the same cell cultures. Here, individual cultures were used for each compound explored and at least three replicates were used for each compound. While experimental variation occurred between the different compound treatments, the levels of the different intron retention, exon skipping or RNA expression were collected from the same cellular material. Statistics were calculated using a standard one-way ANOVA; p values were represented so that * signifies p<0.0001. HCT116 were treated with analogs 1-1j ranging from 0.1-5000 nM for 72 hours, then cell viability was measured using the MTS assay. GI50 values and confidence intervals were calculated using GraphPad (Table 12).

SF3B2 = assay: qPCR splicing analysis, SF3B2 intron retention; conditions: for SF3B2 intron retention (level of intron retention): HCT116, 4 h, 20 times GI50, qPCR relative to GAPDH; for SF3B2 intron retention: HCT116, 24 h, 100, 250, 500 nM, compared to 1
Experimental: (§2) HCT116 tumor cells were treated with each analogue at 20 times the G150 value (Table 12) for 4 hours and then cellular RNA was isolated and purified for qPCR. Primers were designed to evaluate intron retention or exon skipping, direct responses to splice modulator treatment. Genes evaluated included those involved in splicing regulation (SF3A1, SF3A3, SF3B1, SF3B2), apoptosis (MCL-1L), protein folding (DNAJB1), and cell cycle regulation (AURKA, PLK-1) relative to the unspliced control GAPDH. For alternative splicing regulator (SF2), primers were designed to evaluate gene expression, which changes in response splice modulator treatment for SF2 relative to the unspliced control GAPDH. (−) denotes untreated cells.
as §2, with “analogues” for “each analogue”, “100 nM (light grey), 250 nM (grey), or 500 nM (black)” for “20 times the G150 value (Table 12)”, “24 h” for “4 hours”, “(MCL-1L), and” for “(MCL-1L),”, “(DNAJB1),” for “(DNAJB1), and cell cycle regulation (AURKA, PLK-1)”, “(—)” for “(−)”
Next, we turned our efforts to explore the ability of these analogues to modulate splicing. […] We treated cells for 4 h so that we could evaluate early changes in splicing activity, and then cellular RNA was isolated and purified for analyses by qPCR (FIG. 14). Most importantly, none of the concentrations tested led to significant changes in cell viability, ensuring that changes in gene expression were not due to cell death.
(§3) For these studies, we evaluated the expression of genes involved in splicing regulation (SF3A1, SF3A3, SF3B1, SF3B2), apoptosis (MCL-1L), protein folding (DNAJB1), and cell cycle regulation (AURKA, PLK-1) relative to the unspliced control GAPDH. Primers were designed to evaluate intron retention or exon skipping, direct responses to splice modulator treatment. The master splicing regulator alternative splicing factor (SF2) was also evaluated, with the primers for this gene designed to evaluate overall gene expression, which changes in response to splice modulator treatment.
(§4) From this 4 h study (FIG. 14), a small set of analogs (1, 1b, 1g, 1d, 1e, 1i and 1j) were selected to evaluate if effects on splicing when presented for a longer 24 h period. […] Using identical procedures as that used for 4 h, HCT116 cells were treated with three concentrations (100 nM, 250 nM and 500 nM) of each analog for 24 h. Multiple concentrations were used as a means to check further validate the use of the GI50 concentration in our prior study (FIG. 14). As before, none of the concentrations tested led to significant changes in cell viability over the 24-hour time window, ensuring that changes in gene expression were not due to cell death.
Cells were treated with 1 or 1a-1j in media (McCoy's 5a (Life Technologies) supplemented with 10% FBS, 2 mM L-glutamine, and 100 U mL^−1 of penicillin and 100 μg mL^−1 of streptomycin 0.5% DMSO) for 4 h or 24 h. Untreated cells were considered were used as negative control. Total RNA was isolated using mirVana miRNA isolation kit (Life Technologies). A 1 μg sample of RNA was subjected to DNAseI from a TURBO DNA free kit (Life Technologies). The cDNA was prepared by using SuperScript III reverse transcriptase kit (Life Technologies). […]

HCT116 tumor cells = assay: qPCR structure-splicing profile over the gene panel; conditions: HCT116, 24 h, 100, 250, 500 nM, compared to 1
Experimental: as §2, with “analogues” for “each analogue”, “100 nM (light grey), 250 nM (grey), or 500 nM (black)” for “20 times the G150 value (Table 12)”, “24 h” for “4 hours”, “(MCL-1L), and” for “(MCL-1L),”, “(DNAJB1),” for “(DNAJB1), and cell cycle regulation (AURKA, PLK-1)”, “(—)” for “(−)”
as §3, §4, §1

CC[C@H](OC)[C@@H](C)[C@H]1O[C@@H]1[C@@H](O)[C@H](C)/C=C/C=C(\C)[C@H]1OC(=O)C[C@H](O)CC[C@@](C)(O)[C@@H](OC(C)=O)/C=C/[C@@H]1C [Analog 1d, 17S-FD-895]
cell growth inhibitory activity compared to FD-895 ([1]; HCT-116 cells): retained potency; also recorded: comparable inhibitor of cell growth as 1
GI50 ([1]; read-out: GI50 value): 2.06 nM
GI50 ([1]; read-out: GI50 value (text)): < 10 nM
SF3B2 intron retention (level of intron retention) (SF3B2): improved efficacy
SF3B2 intron retention (SF3B2): concentration dependent increased intron retention
splicing activity over the genes tested (HCT116 tumor cells): modest switch in gene selectivity

CC[C@H](OC)[C@@H](C)[C@H]1O[C@@H]1[C@@H](O)[C@H](C)/C=C/C=C(\C)[C@H]1OC(=O)C[C@@H](O)CC[C@@](C)(O)[C@@H](OC(C)=O)/C=C/[C@@H]1C [Analog 1g, 3S,17S-FD-895]
fold less effective compared to 1a or 1d ([1]; HCT116 GI50, compared to 1a or 1d): 60 fold
fold less active (GI50) than 1 ([1]; HCT116 cell growth inhibition, compared to 1): 75 fold
GI50 ([1]; read-out: GI50 value): 131 nM
GI50 ([1]; read-out: GI50 value (text)): 130 nM
SF3B2 intron retention (SF3B2): loss in intron retention

CC[C@H](OC)[C@@H](C)[C@@H]1O[C@H]1[C@@H](O)[C@H](C)/C=C/C=C(\C)[C@H]1OC(=O)C[C@H](O)CC[C@@](C)(O)[C@@H](OC(C)=O)/C=C/[C@@H]1C [Analog 1i, 17S,18S,19S-FD-895]
GI50 ([1]; read-out: GI50 value): 446 nM
GI50 ([1]; read-out: GI50 value (text)): 450 nM
SF3B2 intron retention (level of intron retention) (SF3B2): improved efficacy
splicing activity over the genes tested (HCT116 tumor cells): drastic reduction in splicing activity

CC[C@@H](OC)[C@H](C)[C@H]1O[C@@H]1[C@@H](O)[C@H](C)/C=C/C=C(\C)[C@H]1OC(=O)C[C@H](O)CC[C@@](C)(O)[C@@H](OC(C)=O)/C=C/[C@@H]1C [Analog 1j, 17S,20S,21R-FD-895]
GI50 ([1]; read-out: GI50 value): 262 nM
GI50 ([1]; read-out: GI50 value (text)): 260 nM
SF3B2 intron retention (level of intron retention) (SF3B2): improved efficacy
splicing activity over the genes tested (HCT116 tumor cells): splicing profile comparable to 1i
